Source: PubChem BioAssay (NCI)
“And” between values parts separate entries of the source, which are not always exact repeats. Equal values may be shown once.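 Step 1: Grow cells in 96-well plates. Step 2: Expose to compound for 48 hours at 5 concentrations. Step 3: Interpolate endpoints linearly; if unreached, use highest concentration. GI50 is the concentration that inhibits growth by half. TGI denotes the concentration required for complete inhibition of growth.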

Tests used:
Experiment in all cases: NCI anticancer screen, dose series, 48 h
BT-549 breast = system: BT-549 breast
CCRF-CEM leukemia = system: CCRF-CEM leukemia
IGROV1 ovarian = system: IGROV1 ovarian
OVCAR-4 ovarian = system: OVCAR-4 ovarian
RPMI-8226 leukemia = system: RPMI-8226 leukemia
RXF 393 renal = system: RXF 393 renal
SF-539 CNS = system: SF-539 CNS
SNB-19 CNS = system: SNB-19 CNS
TK-10 renal = system: TK-10 renal
SK-MEL-2 melanoma = system: SK-MEL-2 melanoma

| SMILES | TGI (BT-549 breast) | TGI (CCRF-CEM leukemia) [µM] | TGI (IGROV1 ovarian) | TGI (OVCAR-4 ovarian) | TGI (RPMI-8226 leukemia) | TGI (RXF 393 renal) | TGI (SF-539 CNS) | TGI (SNB-19 CNS) | TGI (TK-10 renal) | TGI (SK-MEL-2 melanoma) | GI50 (RPMI-8226 leukemia) | GI50 (TK-10 renal) [µM] | GI50 (BT-549 breast) [µM] | GI50 (CCRF-CEM leukemia) [µM] | GI50 (RXF 393 renal) | GI50 (SF-539 CNS) | GI50 (SK-MEL-2 melanoma) [µM] | GI50 (SNB-19 CNS) |
| --- | --- | --- | --- | --- | --- | --- | --- | --- | --- | --- | --- | --- | --- | --- | --- | --- | --- | --- |
| COCOc1ccc(C(=O)C(C)c2ccc(OCOC)cc2OCOC)c(O)c1 (stereo not given) | > 100 µM | > 100 | > 100 µM | > 100 µM | > 100 µM | > 100 µM | > 100 µM | > 100 µM | > 100 µM | – | – | – | – | – | – | – | – | – |
| C=CCC1(O)c2ccccc2C(=O)c2c(O)ccc(O)c21 (stereo not given) | 36.3 µM | 56.7 | > 100 µM | > 82.5 µM | > 100 µM | 21.4 µM | > 33.7 µM | 68.6 µM | 47.1 µM | 9.98 µM | – | – | – | – | – | – | – | – |
| C=C(C)[C@@]1(O)O[C@H]2C[C@@]3(C)OC(=CC3=O)/C(C)=C\[C@@H]3OC(=O)[C@@]1(C)[C@H]32 | 23.9 µM | 24.1 | 24.9 µM | > 100 µM | > 58.1 µM | 26.8 µM | 56 µM | > 100 µM | 42.1 µM | > 56.3 µM | – | – | – | – | – | – | – | – |
| CN(C)CCNc1ccc(C(=O)NCCCN(C)CCCNC(=O)c2ccc(NCCN(C)C)c3c(=O)c4ccccc4[nH]c23)c2[nH]c3ccccc3c(=O)c12 | 0.971 µM | 1.02 | 0.229 µM | 0.211 µM | 0.229 µM | 0.912 µM | < 0.0309 µM | 1.92 µM | 6.94 µM | 0.414 µM | – | – | – | – | – | – | – | – |
| CN(C)c1nc2sc3c(c2c(=O)o1)CCCC3 | 65.5 µM | > 100 | > 100 µM | > 100 µM | > 100 µM | > 100 µM | > 100 µM | > 100 µM | > 100 µM | 99.4 µM | – | – | – | – | – | – | – | – |
| CCOC(=O)c1cccc(NC(=O)CCl)c1 | 17.9 µM | 10.6 | 8.11 µM | 8.31 µM | 15.9 µM | 9.9 µM | 5.78 µM | > 92.8 µM | 15 µM | 8.57 µM | – | – | – | – | – | – | – | – |
| O=C1c2ccccc2C2CNC1(O)c1ccccc12 (stereo not given) | > 100 µM | > 100 | > 100 µM | > 100 µM | > 100 µM | > 100 µM | > 100 µM | > 100 µM | > 100 µM | > 100 µM | – | – | – | – | – | – | – | – |
| Clc1ccc2c(SCC3CO3)c3ccccc3nc2c1 (stereo not given) | 18.7 µM | 6.98 | 2.9 µM | 21.1 µM | 7.19 µM | 8.08 µM | 7.11 µM | 15.3 µM | 3.35 µM | 8.11 µM | – | – | – | – | – | – | – | – |
| Cc1ccc(C)n1-c1ccccc1C1SCCCS1 | > 100 µM | > 100 | > 100 µM | > 100 µM | > 100 µM | > 100 µM | > 100 µM | > 100 µM | > 100 µM | > 100 µM | – | – | – | – | – | – | – | – |
| O=C1C2CCCCC2C(=O)N1n1c(Cc2ccc(Cl)cc2)n[nH]c1=O (stereo not given) | > 100 µM | > 100 | > 100 µM | > 100 µM | > 100 µM | > 100 µM | > 100 µM | > 100 µM | > 100 µM | > 100 µM | – | – | – | – | – | – | – | – |
| CCCC(=O)O | > 18700 µM | > 18700 | > 18700 µM | > 18700 µM | – | 16100 µM | 16900 µM | > 18700 µM | > 18700 µM | > 18700 µM | 473 µM | 2120 | – | – | – | – | – | – |
| O=C(Cc1ccccc1)NCCc1ccc(O)c(O)c1 | > 100 µM | 24.3 | > 100 µM | 28 µM | > 100 µM | > 100 µM | > 100 µM | > 100 µM | > 100 µM | 80.1 µM | – | – | – | – | – | – | – | – |
| c1ccc(CNC2CC(NCc3ccccn3)CC(NCc3ccccn3)C2)nc1 (stereo not given) | 17.1 µM and 10.5 µM and 38 µM | – | 10.1 µM and 11.1 µM and 22.5 µM | 9.26 µM and 8.37 µM and 40.9 µM | 9.64 µM and 25 µM and 13.5 µM | 4.11 µM and 9.03 µM and 3.83 µM | 10.1 µM and 10.7 µM and 15.7 µM | 11.7 µM and 5.64 µM and 3.83 µM | 17.8 µM and 10.8 µM | 6.86 µM and 11.5 µM and 12.2 µM | 2.96 µM and 6.93 µM and 3.51 µM | – | 18.2 | 4.64 | 1.98 µM and 4.41 µM | 1.98 µM and 4.74 µM and 3.22 µM | 3.4 | 3.42 µM and 1.64 µM and 1.96 µM |
| O=C(O)[C@H]1[C@@H](C2CCCCC2)O[C@@H](C2CCCCC2)O[C@H]1C(F)(F)F | 98.6 µM | 47.7 | 35.9 µM | > 100 µM | 45.3 µM | 48.4 µM | > 100 µM | 81.3 µM | > 100 µM | – | – | – | – | – | – | – | – | – |
| O=C1Oc2ccccc2C(=O)/C1=C/N1C(=O)N/C(=C\c2ccccc2O)C1=O | > 100 µM | > 100 | > 100 µM | > 100 µM | > 100 µM | > 100 µM | > 100 µM | > 100 µM | > 100 µM | > 100 µM | – | – | – | – | – | – | – | – |
| CC(C)(C)OC(=O)CN1CCNCCNCC1 | > 100 µM | > 100 | > 100 µM | > 100 µM | > 100 µM | > 100 µM | > 100 µM | > 100 µM | > 100 µM | > 100 µM | – | – | – | – | – | – | – | – |
